The supplement of paper PMC10307832

Legend:
Assay in all cases: relative viability (nuclei count vs DMSO), 5 days (fraction); higher = more cells survive
Venetoclax + Bortezomib = compound: CC1(C)CCC(CN2CCN(c3ccc(C(=O)NS(=O)(=O)c4ccc(NCC5CCOCC5)c([N+](=O)[O-])c4)c(Oc4cnc5[nH]ccc5c4)c3)CC2)=C(c2ccc(Cl)cc2)C1 [Venetoclax] + CC(C)C[C@H](NC(=O)[C@H](Cc1ccccc1)NC(=O)c1cnccn1)B(O)O [Bortezomib] (partner 0.002 µM)
Procedure, shortened: (§1)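 Lung cancer cell lines in 1536-well plates got either a single drug or a fixed anchor-drug dose together with five library-drug doses (not always all listed) in √10 steps, by pin tool, on the day after seeding. Nuclei were counted after 5 days, and relative viability is the treated-to-vehicle ratio of nuclei counts. Values are medians of duplicate plates.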

Venetoclax + Pictilisib = compound: CC1(C)CCC(CN2CCN(c3ccc(C(=O)NS(=O)(=O)c4ccc(NCC5CCOCC5)c([N+](=O)[O-])c4)c(Oc4cnc5[nH]ccc5c4)c3)CC2)=C(c2ccc(Cl)cc2)C1 [Venetoclax] + CS(=O)(=O)N1CCN(Cc2cc3nc(-c4cccc5[nH]ncc45)nc(N4CCOCC4)c3s2)CC1 [Pictilisib] (partner 1 µM)
Procedure, shortened: as §1

Venetoclax + Olaparib = compound: CC1(C)CCC(CN2CCN(c3ccc(C(=O)NS(=O)(=O)c4ccc(NCC5CCOCC5)c([N+](=O)[O-])c4)c(Oc4cnc5[nH]ccc5c4)c3)CC2)=C(c2ccc(Cl)cc2)C1 [Venetoclax] + O=C(c1cc(Cc2n[nH]c(=O)c3ccccc23)ccc1F)N1CCN(C(=O)C2CC2)CC1 [Olaparib] (partner 8 µM)
Procedure, shortened: as §1

Selumetinib + Dasatinib = compound: Cn1cnc2c(F)c(Nc3ccc(Br)cc3Cl)c(C(=O)NOCCO)cc21 [Selumetinib] + Cc1nc(Nc2ncc(C(=O)Nc3c(C)cccc3Cl)s2)cc(N2CCN(CCO)CC2)n1 [Dasatinib] (partner 0.075 µM)
Procedure, shortened: as §1

Row | Cell Line | relative viability (Venetoclax + Bortezomib; first compound 0.01 µM) | relative viability (Venetoclax + Bortezomib; first compound 0.03162 µM) | relative viability (Venetoclax + Bortezomib; first compound 0.1 µM) | relative viability (Venetoclax + Bortezomib; first compound 0.3162 µM) | relative viability (Venetoclax + Bortezomib; first compound 1 µM) | relative viability (Venetoclax + Pictilisib; first compound 0.01 µM) | relative viability (Venetoclax + Pictilisib; first compound 0.03162 µM) | relative viability (Venetoclax + Pictilisib; first compound 0.1 µM) | relative viability (Venetoclax + Pictilisib; first compound 0.3162 µM) | relative viability (Venetoclax + Pictilisib; first compound 1 µM) | relative viability (Venetoclax + Olaparib; first compound 0.01 µM) | relative viability (Venetoclax + Olaparib; first compound 0.03162 µM) | relative viability (Venetoclax + Olaparib; first compound 0.1 µM) | relative viability (Venetoclax + Olaparib; first compound 0.3162 µM) | relative viability (Venetoclax + Olaparib; first compound 1 µM) | relative viability (Selumetinib + Dasatinib; first compound 0.02 µM) | relative viability (Selumetinib + Dasatinib; first compound 0.06325 µM) | relative viability (Selumetinib + Dasatinib; first compound 0.2 µM) | relative viability (Selumetinib + Dasatinib; first compound 0.6325 µM)
1 | LC-2-ad | 0.834 | 1.02 | 0.968 | 0.907 | 0.94 | 0.45 | 0.401 | 0.387 | 0.516 | 0.555 | 0.735 | 0.696 | 0.664 | 0.702 | 0.708 | 0.724 | 0.501 | 0.427 | 0.559
2 | NCI-H2126 | 1.05 | 1.12 | 1.09 | 1.14 | 1.11 | 0.482 | 0.538 | 0.487 | 0.528 | 0.488 | 0.85 | 0.936 | 0.838 | 0.915 | 0.913 | 0.484 | 0.483 | 0.498 | 0.515
3 | COR-L23 | 0.91 | 1.06 | 0.982 | 0.98 | 0.896 | 0.676 | 0.82 | 0.732 | 0.825 | 0.676 | 0.331 | 0.473 | 0.313 | 0.382 | 0.314 | 0.462 | 0.488 | 0.488 | 0.47
4 | BEN | 0.61 | 1.06 | 0.868 | 0.837 | 0.749 | 0.738 | 0.637 | 0.518 | 0.557 | 0.546 | 1.07 | 1.21 | 0.97 | 1.1 | 1.02 | 0.295 | 0.341 | 0.368 | 0.371
5 | ChaGo-K-1 | 1.08 | 1.11 | – | 1.08 | 0.926 | 0.91 | 0.998 | – | 0.825 | 0.727 | 0.341 | 0.48 | 0.437 | 0.5 | 0.439 | 0.587 | 0.615 | 0.664 | 0.592
6 | NCI-H460 | 1.06 | 1.06 | 1.06 | 1.03 | 0.904 | 0.394 | 0.43 | 0.316 | 0.385 | 0.367 | 0.39 | 0.414 | 0.359 | 0.44 | 0.398 | 0.332 | 0.272 | 0.155 | 0.128
7 | NCI-H647 | 1.08 | 1.2 | – | 0.944 | 1.02 | 0.443 | 0.386 | 0.435 | 0.439 | 0.45 | 0.521 | 0.698 | 0.424 | 0.564 | 0.535 | 0.187 | 0.2 | 0.167 | 0.154
8 | ABC-1 | 0.291 | 0.314 | 0.446 | 0.31 | 0.309 | 0.786 | 0.778 | 0.759 | 0.71 | 0.699 | 0.711 | 0.721 | 0.87 | 0.641 | 0.686 | 0.512 | 0.37 | 0.47 | 0.566
9 | NCI-H1734 | 0.815 | 1.07 | 0.921 | 0.946 | 0.914 | 0.507 | 0.508 | 0.398 | 0.513 | 0.488 | 0.598 | 0.656 | 0.662 | 0.634 | 0.634 | 0.506 | 0.531 | 0.466 | 0.549
10 | NCI-H2023 | 0.964 | 1 | 1.03 | 1.01 | 0.853 | 0.259 | 0.234 | 0.222 | 0.23 | 0.227 | 0.425 | 0.498 | 0.453 | 0.561 | 0.455 | 0.534 | 0.484 | 0.562 | 0.448
11 | NCI-H2009 | 1.09 | 0.951 | 1.03 | 0.991 | 1.02 | 0.814 | 0.955 | 0.778 | 0.838 | 0.774 | 0.662 | 0.729 | 0.681 | 0.655 | 0.586 | 0.233 | 0.183 | 0.163 | 0.151
12 | HCC-78 | 0.523 | 0.583 | 0.482 | 0.525 | 0.477 | 0.179 | 0.244 | 0.187 | 0.206 | 0.238 | 0.718 | 0.78 | 0.879 | 0.871 | 0.686 | 0.395 | 0.344 | 0.347 | 0.364
